Test results from patent US8017350B2, “Glimepiride- and insulin-induced glycosylphosphatidylinositol-specific phospholipase C regulation” (Sanofi-Aventis Deutschland GmbH, priority 2004, dated 2011).

Columns and labels:
[1] = system: GPI-PLC, rat adipocyte plasma membrane/DIGs; assay: Inhibition of adipocyte GPI-PLC (plasma membranes, lcDIGs or hcDIGs), substrate AChE; format: biochemical
[2] = system: GPI-PLC, hcDIGs of rat adipocytes; format: biochemical; conditions: isolated hcDIGs; concentration-dependent
[3] = molecular target: phospholipase A2 (honey bee venom) (Apis mellifera, UniProt P00630); format: biochemical; conditions: 50 μM
[4] = system: pp59Lyn and IRS-1 in rat adipocytes; assay: Tyrosine phosphorylation of pp59Lyn and IRS-1; format: cell-based; conditions: GPI-2350; IRS-1 tyrosine phosphorylation and glucose transport
Method: Polypeptides separated by SDS-PAGE were transferred to polyvinylidene difluoride membranes using the semidry procedure as described in “Müller, G. et al., (2001) Mol. Cell. Biol. 21: 4553-4567”. Washed membranes were incubated with anti-caveolin-1 (1:2000), anti-pp59^Lyn (1:1250), anti-aP (1:500), anti-5′-Nuc (1:750) and anti-IRS-1 (1:2000) antibodies for 4 h at 15° C. Washed membranes were incubated with horseradish peroxidase-coupled secondary goat anti-mouse (1:2000) or goat anti-rabbit IgG (1:4000) antibodies. Labeled proteins were visualized by enhanced chemiluminescence.
FIG. 7: Effect of GPI-2350 on the glimepiride/insulin-induced activation of signaling proteins. Isolated rat adipocytes were treated (5 min, 37° C.) without or with GPI-2350 (Panels A, 50 μM; Panels B, increasing conc.) and then incubated (120 min, 37° C.) in the absence or presence of insulin (10 nM) or glimepiride (20 μM). IRS-1 and pp59^Lyn were immunoprecipitated from the defatted postnuclear infranatant (see Materials and Methods) and solubilized combined hc/lcDIGs, respectively, and then immunoblotted for phosphotyrosine. […]

Stability of compound 3 = format: physicochemical; conditions: 4° C.
Method: As starting material, racemic 1,4,5,6-tetra-O-benzyl-myo-inositol (hereinafter: compound 1) was prepared by a procedure as disclosed in “Zhai, H.-X. et al. (1995) Tetrahedron Lett. 36: 7403-7406”. Compound 1 was then phosphorylated with dodecylphosphonic dichloride in the presence of triethylamine and dimethyl-aminopyridine to yield tetra-O-benzyl-myo-inositol-1,2-cyclo-dodecylphosphonic acid (hereinafter: compound 2). By catalytic hydrogenation with 10% Pd on charcoal, compound 2 was debenzylated to myo-inositol-1,2-cyclo-dodecylphosphonic acid (hereinafter: compound 3 or GPI-2350) as a mixture of diastereomers. For synthesis of compound 2 (FIG. 1), 1 g (1.8 mmol) of compound 1 was dissolved in 60 ml of methylene chloride and 1 ml of triethylamine; 200 mg dimethyl-aminopyridine and 1 g ([…]) of dodecylphosphonic dichloride were added. This reaction solution was allowed to stand (45 min, room temperature). Then 50 ml of ethyl acetate were added and the mixture was filtered on silica gel. After concentration of the solvent, the residue was purified by flash chromatography (n-heptane/ethyl acetate, 1/1, by vol.). Yield of compound 2: 580 mg (43%) of a white amorphous solid. TLC: n-heptane/ethyl acetate (1/1, by vol.), Rf=0.7. MS: (M+Li)^+=761.4, calculated […], M=754.9. […] MS: (M+Li)^+=401.2, calculated C18H35O7P, M=394.4.

Sequence of phospholipase A2 (honey bee venom) (P00630 34-167 limits assumed): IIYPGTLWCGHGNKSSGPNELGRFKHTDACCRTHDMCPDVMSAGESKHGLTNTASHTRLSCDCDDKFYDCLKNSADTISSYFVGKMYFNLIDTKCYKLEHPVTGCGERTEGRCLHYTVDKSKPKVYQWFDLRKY

In the case of CCCCCCCCCCCCP1(=O)O[C@@H]2[C@H](O)[C@@H](O)[C@H](O)[C@@H](O)[C@@H]2O1 (some centres unmarked) [GPI-2350, myo-inositol-1,2-cyclo-dodecylphosphonic acid], the inhibition in words [1] is reported as “potent inhibitor”, the “reduction of basal and glimepiride-/insulin-stimulated GPI-PLC activity” value [2] is reported as “to lower than basal and similar levels” and the “effect on PLA2” value [3] is reported as “not significantly affected”. For the same compound, the “effect on stimulation by other insulin-mimetic stimuli” value [4] was “neither IRS-1 tyrosine phosphorylation nor glucose transport (Tab. 3) by these stimuli was affected significantly” and the “stability as dried amorphous solid” value (Stability of compound 3) was “as dried amorphous solid for years at 4 °C”.
